pKi: −log10 of the molar value.
How the values were obtained:
D2 dopamine receptors = D2 dopamine receptors (Rattus norvegicus, UniProt P61169); experiment: inhibition of tritiated (S)-sulpiride binding to D2 dopamine receptors in vitro; set-up: species or system rat (male Charles River CD, striatal tissue); details: rat striatum, tritiated (S)-sulpiride 1 nM, 4° C., 40 min
5-HT1A receptors = biological target: T1, 5-HT1A receptors (Rattus norvegicus, UniProt P19327); experiment: inhibition of [3H]8-OH-DPAT binding to 5-HT1A receptors in vitro; set-up: species or system rat (male Sprague-Dawley, hippocampal tissue); details: rat hippocampus; for pKi: [3H]8-OH-DPAT 2 nM, 25° C., 30 min
T1 sequence (P19327 1-422): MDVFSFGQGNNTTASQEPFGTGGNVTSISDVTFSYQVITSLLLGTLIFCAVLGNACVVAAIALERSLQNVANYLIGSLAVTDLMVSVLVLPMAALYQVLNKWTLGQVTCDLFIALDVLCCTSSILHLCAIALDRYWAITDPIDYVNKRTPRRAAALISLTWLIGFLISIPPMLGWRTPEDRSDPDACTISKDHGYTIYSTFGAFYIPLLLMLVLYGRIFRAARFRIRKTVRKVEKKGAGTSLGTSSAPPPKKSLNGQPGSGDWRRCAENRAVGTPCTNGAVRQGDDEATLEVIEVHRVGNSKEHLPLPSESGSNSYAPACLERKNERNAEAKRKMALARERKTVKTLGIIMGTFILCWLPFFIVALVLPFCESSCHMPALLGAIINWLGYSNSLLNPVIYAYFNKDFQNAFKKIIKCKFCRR

α1-adrenoceptors = experiment: inhibition of 7-methoxy-[3H]prazosin binding to α1-adrenoceptors in vitro; set-up: species or system rat (male Charles River CD, whole cortical tissue); details: rat whole cortex, 30 min; for pKi: 7-methoxy-[3H]prazosin 0.1 nM, 30° C.
Outline: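 Male CD rat cortical membranes in 50 mM Tris-HCl pH 7.6 were incubated 30 min at 30 °C with 7-methoxy-[3H]prazosin (0.1 nM as added), with 5 μM phentolamine (as added) defining non-specific binding, then filtered and counted. Compounds were tested at 10^-6 M for % displacement or at 10^-11–10^-3 M for IC50, and Ki was derived from IC50, ligand concentration and KD.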

α2A-adrenoceptors = biological target: T2, α2A-adrenoceptors (Homo sapiens, UniProt P08913); experiment: inhibition of tritiated RX 821002 binding to α2A-adrenoceptors in vitro; set-up: species or system human (cerebral cortex post-mortem); details: human cerebral cortex; for inhibition at 1 µM: 10^-6 M, [3H]RX 821002, read-out: % displacement at 10^-6 M, α2A
T2 construct: Human cerebral cortex obtained at post-mortem; from tissue; host or cells: human cerebral cortex, post-mortem
T2 sequence (P08913 1-465): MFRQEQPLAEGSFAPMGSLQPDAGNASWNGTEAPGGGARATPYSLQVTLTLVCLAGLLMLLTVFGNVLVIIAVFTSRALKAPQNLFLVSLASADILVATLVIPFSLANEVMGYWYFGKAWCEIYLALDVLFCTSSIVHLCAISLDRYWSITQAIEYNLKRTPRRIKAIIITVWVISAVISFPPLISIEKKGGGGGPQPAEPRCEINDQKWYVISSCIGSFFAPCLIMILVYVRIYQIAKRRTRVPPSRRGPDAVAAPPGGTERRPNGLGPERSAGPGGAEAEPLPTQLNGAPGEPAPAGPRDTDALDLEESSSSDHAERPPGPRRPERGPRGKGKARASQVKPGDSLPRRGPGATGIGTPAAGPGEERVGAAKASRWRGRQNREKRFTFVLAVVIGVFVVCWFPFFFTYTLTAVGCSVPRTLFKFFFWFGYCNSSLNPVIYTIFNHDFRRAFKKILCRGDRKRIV
Protocol: Human cerebral cortex obtained at post-mortem was homogenised in ice-cold 0.25M sucrose (1:30 w/v) and centrifuged at 1,000 g at 4° C. for 12 minutes. The supernatant was stored on ice and the pellet was rehomogenised in 0.25M sucrose (1:15 w/v) and centrifuged at 850 g at 4° C. for 12 minutes. Combined supernatants were diluted with 5 mM Tris-HCl (pH 7.5) containing 5 mM ethylenediamine tetraacetic acid (EDTA), readjusted to pH 7.5 (at 25° C.) with 1M sodium hydroxide to 1:80 w/v, and centrifuged at 11,000 g at 4° C. for 10 minutes. The resulting pellet was resuspended in 50 mM Tris-HCl (pH 7.5) containing 5.68 mM L-ascorbic acid and 0.5 mM EDTA, readjusted to pH 7.5 (at 25° C.) with 1M sodium hydroxide to 1:80 w/v, and centrifuged at 11,000 g for 10 minutes. The pellet was stored at -80° C. On the day of the assay the pellet was thawed, resuspended in 50 mM Tris-HCl (pH 7.5) containing 5.68 mM L-ascorbic acid and 5 mM EDTA to 1:80 w/v and centrifuged at 11,000 g for 10 minutes. The final pellet was resuspended in 50 mM Tris-HCl (pH 7.5) containing 5.68 mM L-ascorbic acid and 5 mM EDTA (equivalent to 25 mg wet weight of tissue/ml).
Aliquots (400 μl; equivalent to 10 mg wet weight of tissue/tube) of this suspension were added to tubes containing the ligand (50 μl; 0.2 nM) and distilled water (50 μl; total binding) or phentolamine (50 μl; 50 μM; non-specific binding) or test compound (50 μl; at a single concentration of 10^-6 M or at 10 concentrations ranging from 10^-11 -10^-3 M). The ligand was tritiated RX 821002 (2-(2-methoxy-1,4-[6,7(n)-^3 H]benzodioxan-2-yl)-2-imidazoline) and the mixture was incubated at 0° C. for 75 minutes before the incubation was terminated by rapid filtration.
The filters were washed with ice-cold Tris-HCl buffer and dried. The filters were punched out into vials, scintillation fluid added and radioactivity determined by liquid scintillation counting. The percentage displacement of specific binding of the tritiated ligand was calculated for the single concentration (10^-6 M) of test compound. Displacement curves were then produced for those compounds which displaced ≥50% of specific binding of the tritiated ligand at 10^-6 M using a range of concentrations of the compound. The concentration which gave 50% inhibition of specific binding (IC50) was obtained from the curve. The inhibition coefficient Ki was then calculated using the formula [formula] in which [ligand] is the concentration of the tritiated ligand used and KD is the equilibrium dissociation constant for the ligand.

α2D-adrenoceptors = biological target: T3, α2D-adrenoceptors (Rattus norvegicus, UniProt P22909); experiment: inhibition of tritiated idazoxan binding to α2D-adrenoceptors in vitro; set-up: species or system rat (male Charles River CD, frontal cortical tissue); details: rat frontal cortex; for inhibition at 1 µM: 10^-6 M, [3H]idazoxan, read-out: % displacement at 10^-6 M, α2D; for pKi: [3H]idazoxan 1 nM, 0° C., 75 min
T3 sequence (P22909 1-465): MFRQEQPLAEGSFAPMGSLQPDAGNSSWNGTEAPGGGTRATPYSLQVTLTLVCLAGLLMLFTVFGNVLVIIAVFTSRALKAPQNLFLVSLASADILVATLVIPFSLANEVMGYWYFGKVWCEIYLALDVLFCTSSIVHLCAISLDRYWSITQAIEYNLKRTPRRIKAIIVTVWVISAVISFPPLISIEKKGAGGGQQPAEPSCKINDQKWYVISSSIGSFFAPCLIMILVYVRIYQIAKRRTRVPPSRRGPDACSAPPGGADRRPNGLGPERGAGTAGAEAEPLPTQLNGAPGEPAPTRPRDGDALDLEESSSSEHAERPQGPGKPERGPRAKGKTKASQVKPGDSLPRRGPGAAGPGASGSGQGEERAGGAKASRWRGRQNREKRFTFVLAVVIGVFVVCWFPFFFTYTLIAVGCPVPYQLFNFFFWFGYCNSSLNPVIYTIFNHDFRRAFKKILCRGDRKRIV

D2 dopamine receptors, sequence (P61169 whole entry): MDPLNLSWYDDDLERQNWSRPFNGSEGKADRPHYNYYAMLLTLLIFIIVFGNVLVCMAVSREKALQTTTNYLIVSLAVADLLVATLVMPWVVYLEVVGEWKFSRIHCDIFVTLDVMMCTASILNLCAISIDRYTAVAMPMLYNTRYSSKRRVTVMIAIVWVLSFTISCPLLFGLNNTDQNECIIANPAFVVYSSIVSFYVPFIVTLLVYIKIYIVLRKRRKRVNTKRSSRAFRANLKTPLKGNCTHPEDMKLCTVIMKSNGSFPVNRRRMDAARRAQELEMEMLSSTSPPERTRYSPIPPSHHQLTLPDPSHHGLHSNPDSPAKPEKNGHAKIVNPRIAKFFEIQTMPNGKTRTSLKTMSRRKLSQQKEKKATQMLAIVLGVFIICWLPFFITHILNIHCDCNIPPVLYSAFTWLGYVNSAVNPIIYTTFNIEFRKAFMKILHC

SMILES | pKi (D2 dopamine receptors) | inhibition at 1 µM (5-HT1A receptors; 10^-6 M, [3H]8-OH-DPAT, read-out: % displacement at 10^-6 M, 5-HT1A) [%] | % displacement at 10^-6 M, α1 (α1-adrenoceptors; 10^-6 M, 7-methoxy-[3H]prazosin, 1 µM) [%] | inhibition at 1 µM (α2A-adrenoceptors) [%] | inhibition at 1 µM (α2D-adrenoceptors) [%] | pKi (5-HT1A receptors) | pKi (α1-adrenoceptors) | pKi (α2D-adrenoceptors) | pKi (α2A-adrenoceptors; [3H]RX 821002 0.2 nM, 0° C., 75 min)
Nc1c(CN2CCN(c3cccc(Cl)c3)CC2)c(C2CC2)nn1-c1ccccc1 [Example 14, 5-Amino-4-[4-(3-chlorophenyl)piperazin-1-ylmethyl]-3-cyclopropyl-1-phenylpyrazole] | < 6.30 | 74 | 80 | 99 | 81 | – | – | – | –
Cn1nc(C2CCC2)c(CN2CCN(c3cccc4c3OCCO4)CC2)c1N [Example 30, 5-Amino-4-[4-(1,4-benzodioxan-5-yl)piperazin-1-ylmethyl]-3-cyclobutyl-1-methylpyrazole] | 6.58 | – | – | 99 | 94 | 7.74 | 7.19 | – | –
Nc1c(CN2CCN(c3cccc4ccoc34)CC2)c(C2CC2)nn1-c1ccccc1 [Example 27, 5-Amino-4-[4-(7-benzo[b]furanyl)piperazin-1-ylmethyl]-3-cyclopropyl-1-phenylpyrazole] | < 6.30 | – | – | 99 | – | 7.80 | 8.15 | 8.31 | –
Cc1ccccc1N1CCN(Cc2c(C3CC3)nn(-c3ccccc3)c2N)CC1 [Example 19, 5-Amino-3-cyclopropyl-4-[4-(2-methylphenyl)piperazin-1-ylmethyl]-1-phenylpyrazole] | < 6.30 | – | – | 100 | – | 6.59 | 7.42 | 8.31 | –
CC(C)Oc1ccccc1N1CCN(Cc2c(C3CC3)nn(-c3ccccc3)c2N)CC1 [Example 23, 5-Amino-3-cyclopropyl-4-[4-(2-isopropoxyphenyl)piperazin-1-ylmethyl]-1-phenylpyrazole] | 6.96 | – | – | 100 | – | 7.66 | 7.77 | 8.77 | –
CC(C)Oc1ccccc1N1CCN(Cc2c(C3CCC3)nn(C)c2N)CC1 [Example 28, 5-Amino-3-cyclobutyl-4-[4-(2-isopropoxyphenyl)piperazin-1-ylmethyl]-1-methylpyrazole] | 7.60 | – | – | 99 | 93 | 7.40 | 7.57 | – | –
Nc1c(CN2CCN(c3cccc4c3OCCO4)CC2)c(C2CC2)nn1-c1ccncc1 [Example 34, 5-Amino-4-[4-(1,4-benzodioxan-5-yl)piperazin-1-ylmethyl]-3-cyclopropyl-1-(4-pyridyl)pyrazole] | 7.06 | – | – | 96 | 87 | 6.93 | 6.99 | – | –

Results, then the compound that gave them:

pKi (D2 dopamine receptors) | inhibition at 1 µM (5-HT1A receptors; 10^-6 M, [3H]8-OH-DPAT, read-out: % displacement at 10^-6 M, 5-HT1A) [%] | % displacement at 10^-6 M, α1 (α1-adrenoceptors; 10^-6 M, 7-methoxy-[3H]prazosin, 1 µM) [%] | inhibition at 1 µM (α2A-adrenoceptors) [%] | inhibition at 1 µM (α2D-adrenoceptors) [%] | pKi (5-HT1A receptors) | pKi (α1-adrenoceptors) | pKi (α2D-adrenoceptors) | pKi (α2A-adrenoceptors; [3H]RX 821002 0.2 nM, 0° C., 75 min) | SMILES
7.66 | – | – | 100 | – | 6.97 | 7.92 | 7.68 | – | CC(C)Oc1ccccc1N1CCN(Cc2c(N)n(C)n(-c3ccccc3)c2=O)CC1 [Example 8, 3-Amino-4-[4-(2-isopropoxyphenyl)piperazin-1-ylmethyl]-2-methyl-1-phenyl-3-pyrazolin-5-one]
6.95 | – | – | 82 | – | 7.41 | 6.73 | < 6.30 | – | Cn1c(N)c(CN2CCN(c3cccc4ccccc34)CC2)c(=O)n1-c1ccccc1 [Example 4, 3-Amino-2-methyl-4-[4-(1-naphthyl)piperazin-1-ylmethyl]-1-phenyl-3-pyrazolin-5-one]
6.35 | – | – | 89 | – | 7.21 | 7.72 | 7.82 | – | Nc1c(CN2CCN(c3cccc4c3OCCO4)CC2)c(C2CC2)nn1-c1ccc(Cl)cc1 [Example 20, 5-Amino-4-[4-(1,4-benzodioxan-5-yl)piperazin-1-ylmethyl]-1-(4-chlorophenyl)-3-cyclopropylpyrazole]
6.55 | – | – | – | – | 7.66 | 6.33 | 6.70 | 6.71 | CC1(CN2CCN(c3cccc4c3OCCO4)CC2)N=C(c2ccccc2)NC1=O (stereo not shown) [Example 38, 4-[4-(1,4-benzodioxan-5-yl)piperazin-1-ylmethyl]-4-methyl-2-phenyl-2-imidazolin-5-one]
6.50 | – | – | 69 | – | 7.72 | < 6.30 | 6.66 | – | CC1(CN2CCN(c3cccc4c3OCCO4)CC2)N=C(c2cccnc2)NC1=O (stereo not shown) [Example 40, 4-[4-(1,4-Benzodioxan-5-yl)piperazin-1-ylmethyl]-4-methyl-2-(3-pyridyl)-2-imidazolin-5-one]
6.75 | – | – | 91 | – | 7.62 | 7.72 | 6.78 | – | Cn1c(N)c(CN2CCN(c3cccc4ccoc34)CC2)c(=O)n1-c1ccccc1 [Example 7, 3-Amino-4-[4-(7-benzo[b]furanyl)piperazin-1-ylmethyl]-2-methyl-1-phenyl-3-pyrazolin-5-one]
< 6.30 | – | – | 86 | – | 7.23 | 7.57 | 7.21 | – | COc1ccc(-n2nc(C3CC3)c(CN3CCN(c4cccc5c4OCCO5)CC3)c2N)cc1 [Example 17, 5-Amino-4-[4-(1,4-benzodioxan-5-yl)piperazin-1-ylmethyl]-3-cyclopropyl-1-(4-methoxyphenyl)pyrazole]

Source: patent publication US6114334A, “Piperazine derivatives as therapeutic agents” (Knoll Aktiengesellschaft, priority 1995, dated 2000)
